Bounds are passed on as bounds.

As usually defined, the ED50 is the midpoint of the dose-response relation. For orientation: IC50 means the concentration that gives 50% inhibition. Broadly, the EC50 is the concentration that produces a half-maximal response. One may read the melting point as the temperature of the solid-liquid transition.

One data set has as its system gastric emptying. The data set can be described thus: gastric emptying of a charcoal meal in the mouse, oral route. The class given is in vivo, Female Swiss albino CD1 mice. The settings on record: p.o., 60 minutes before charcoal meal, read-out: ED50 inhibition of gastric emptying. Here is the method:
their agonist effect by the oral route on gastric drainage in the mouse.
An in vivo study of the agonist effect of the compounds on gastric emptying was carried out as follows. Female Swiss albino CD1 mice (20-25 g) are placed on a solid fast for 18 hours. On the day of the experiment, the products are administered orally 60 minutes before the administration of a charcoal meal (0.3 ml per mouse of a suspension in water of 10% charcoal powder, 5% gum arabic and 1% carboxymethylcellulose). The mice are sacrificed 5 minutes later by cervical dislocation, and the gastric emptying is defined as the presence of charcoal in the intestine beyond the pyloric sphincter (Europ. J. Pharmacol., 1993, 232, 13-19).

For the next data set, the target named is T1, human CCK1 receptor (Homo sapiens, UniProt P32238).
T1 construct: expressed in transfected cells; host or cells: 3T3 cells
T1 sequence (P32238 1-428): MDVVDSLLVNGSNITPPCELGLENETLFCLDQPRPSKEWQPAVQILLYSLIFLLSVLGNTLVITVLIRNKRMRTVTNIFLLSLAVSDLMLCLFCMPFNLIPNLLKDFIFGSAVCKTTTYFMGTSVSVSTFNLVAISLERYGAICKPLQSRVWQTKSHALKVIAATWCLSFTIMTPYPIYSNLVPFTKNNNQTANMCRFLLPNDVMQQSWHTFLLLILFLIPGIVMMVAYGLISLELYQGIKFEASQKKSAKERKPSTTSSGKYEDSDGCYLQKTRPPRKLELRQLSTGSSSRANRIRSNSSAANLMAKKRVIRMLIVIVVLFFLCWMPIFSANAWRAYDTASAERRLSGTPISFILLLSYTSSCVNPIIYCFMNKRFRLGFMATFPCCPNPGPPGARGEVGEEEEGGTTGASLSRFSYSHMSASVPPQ
The data set can be described thus: in vitro binding to CCK1 receptor ([125I]-CCK displacement). The procedure: their potentiality for displacing [^125I]-CCK from its binding sites present in rat pancreatic membranes (CCK1 receptor) or 3T3 cells expressing recombinant human CCK1 receptor;
(§1) The compounds of formula (I) underwent studies of in vitro binding to CCK1 and CCK2 receptors, using the method described in Europ. J. Pharmacol., 1993, 232, 13-19. […] The agonist activity of the compounds towards CCK1 receptors was evaluated in vitro in 3T3 cells expressing the human CCK1 receptor, by measuring the mobilization of the intracellular calcium ([Ca^++]i), according to a technique derived from that of Lignon M F et al., Eur. J. Pharmacol., 1993, 245, 241-245. The calcium concentration [Ca^++]i is evaluated with Fura-2 by the double excitation wavelength method. The ratio of the fluorescence emitted at two wavelengths gives the concentration of [Ca^++]i, after calibration (Grynkiewiez G. et al., J. Biol. Chem., 1985, 260, 3440-3450).

For data set [1], the target named is T2, 3T3 cells expressing the human CCK1 receptor (Homo sapiens, UniProt P32238).
T2 construct: expressed in transfected cells; host or cells: 3T3 cells
T2 sequence (P32238 1-428): T1 sequence (P32238 1-428)
The data set can be described thus: mobilization of intracellular calcium ([Ca++]i), Fura-2. It counts as cell-based. The settings on record: read-out: EC50 [Ca++]i release. The procedure:
their CCK1 receptor agonist property, by way of their capacity to induce mobilization of intracellular calcium in vitro in 3T3 cells expressing the human CCK1 receptor;
as §1

For another data set, the target named is T3, human CCK2 receptor (Homo sapiens, UniProt P32239).
T3 sequence (P32239 1-447): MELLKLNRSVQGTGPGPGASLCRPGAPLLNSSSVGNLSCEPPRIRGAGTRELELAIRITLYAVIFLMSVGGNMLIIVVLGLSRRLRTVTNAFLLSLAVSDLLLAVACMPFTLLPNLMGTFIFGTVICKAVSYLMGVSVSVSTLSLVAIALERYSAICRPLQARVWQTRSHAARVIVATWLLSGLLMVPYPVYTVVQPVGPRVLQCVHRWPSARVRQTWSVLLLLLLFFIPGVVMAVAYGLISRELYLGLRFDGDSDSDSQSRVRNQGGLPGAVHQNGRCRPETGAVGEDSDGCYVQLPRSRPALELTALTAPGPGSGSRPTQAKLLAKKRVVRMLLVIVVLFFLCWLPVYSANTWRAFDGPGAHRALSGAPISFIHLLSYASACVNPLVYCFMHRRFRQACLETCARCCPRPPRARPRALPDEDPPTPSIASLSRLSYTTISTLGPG
The data set can be described thus: in vitro binding to CCK2 receptor. The note with it: read-out: IC50 (affinity, human CCK2 receptor). The procedure: their selectivity for the CCK2 receptor;
as §1

Consider `COc1cc(-c2nc(NC(=O)c3cc4c(C)c(C)c(OC)cc4n3CCC(=O)O)nn2CCC2CCCCC2)c(OC)cc1C.NCCO` [Example 3, 3-[2-[[[1-(2-cyclohexylethyl)-5-(2,5-dimethoxy-4-methylphenyl)-1H-1,2,4-triazol-3-yl]amino]carbonyl]-6-methoxy-4,5-dimethyl-1H-indol-1-yl]propionic acid ethanolamine salt], for which the ED50 in the data set on gastric emptying was 0.027 mg/kg.
As to `COc1cc(-c2nc(NC(=O)c3cc4c(C)c(C)c(OC)cc4n3CCC(=O)[O-])nn2CCC2CCCCC2)c(OC)cc1C.[K+]` [Example 1, 3-[2-[[[1-(2-cyclohexylethyl)-5-(2,5-dimethoxy-4-methylphenyl)-1H-1,2,4-triazol-3-yl]amino]carbonyl]-6-methoxy-4,5-dimethyl-1H-indol-1-yl]propionic acid, Potassium Salt], the IC50 was 0.4 nM on human CCK1 receptor (human CCK1 receptor, read-out: IC50 (affinity, human CCK1 receptor)) and 234 nM on human CCK2 receptor. Also, on human CCK1 receptor (human CCK1 versus human CCK2), the “selectivity (affinity CCK1 receptor versus affinity of CCK2 receptor)” value is reported as above 500 fold. In addition, in data set [1], the EC50 is around 1 nM.
Turning to `CCNCC.COc1cc(-c2nc(NC(=O)c3cc4c(C)c(C)c(OC)cc4n3CCC(=O)O)nn2CCC2CCCCC2)c(OC)cc1C`, the melting point was 143 °C (dec.).

(Values after patent publication US20040019091A1, “Triazole derivatives and pharmaceutical compositions comprising them” (priority 2000, published 2004).)
